Laboratory results from US20030109584A1, “Stabilized pharmaceutically effective composition and pharmaceutical formulation comprising the same” (priority 2000, published 2003).

How the values were obtained:
Assay type in all cases: physicochemical
[1] = pH value of 1% or 5% aqueous solution of the active substance, after preparing and after 1 week on air
Description: Within the scope of this invention the term “which will provide a pH value” means a pH value that is measured in an aqueous solution or dispersion of an active substance or of a mixture of the active substance with the buffering substance or of a stabilized active substance according to this invention or of a pharmaceutical formulation or of a stabilized pharmaceutical formulation of an active substance obtained according to this invention. The concentration of such an aqueous solution or dispersion is 1% or 5%. The measurement procedure is described in Examples 1-11.

[2] = pH of pravastatin sodium crystals kept in normal air, nitrogen or carbon dioxide atmosphere
Description: Another observation was that carbon dioxide from the air may irreversibly and reversibly bind to the active substance and can cause a drop of pH. This is illustrated by the following experiment: 5 g of pravastatin sodium were dissolved in 30 ml of methanol, the pH was adjusted to 10 with 3% aqueous solution of NaOH. 400 ml of ethylacetate were added and the crystals of pravastatin sodium were formed. Crystals were filtered and dried and then put into three different atmospheres: normal air, nitrogen atmosphere and carbon dioxide atmosphere. In normal air and in the nitrogen atmosphere the pH remained the same during a period of 24 hours (normal air: pH 9.2, nitrogen: pH 9.5), but in the carbon dioxide atmosphere the pH dropped in the first two minutes from 9.2 to 6.9. After 12 minutes the pH was 6.6 and after 1 hour the pH was 6.5. After that, the pH remained constant.

[3] = Stability of pravastatin (lactone and impurity formation) in buffers of pH 7 to 11; conditions: buffers pH 7 to 11 (phosphate, citrate, borate); 1, 5, 13 and 28 days
Text: The third observation is that a sufficient stabilization of the active substance is already obtained at a pH of at least 7.0, but a beneficially high stability is effected at a pH of at least 8.0. We have noticed that at a pH below 8 the formation of lactone has occurred and also the amount of other impurities has increased. The presence of humidity in the air and a carbon dioxide-rich atmosphere makes the negative effect of a low pH even stronger. This is illustrated by the following experiment: Pravastatin was dissolved in different buffers with the pH in a range between 7 and 11 (F=phosphate, C=citrate, B=borate). The occurrence of pravastatin in lactone form and the formation of different degradation products (impurities) were measured after 1, 5, 13 and 28 days.

Q: For `CC[C@H](C)C(=O)O[C@H]1C[C@H](O)C=C2C=C[C@H](C)[C@H](CC[C@@H](O)C[C@@H](O)CC(=O)O)[C@H]21` [Pravastatin Sodium], which “Value pH (1%) after 1 week on air atm” value ([1]; 1% aqueous solution, after 1 week in air atmosphere) is on record?
A: 7.2

Q: And the “Value pH (1%) after preparing” value ([1]; 1% aqueous solution, after preparing)?
A: 7.4

Q: What about the “Value pH (5%) after 1 week on air atm” value ([1]; 5% aqueous solution, after 1 week in air atmosphere) of the same compound?
A: 7.6

Q: And the “Value pH (5%) after preparing” value ([1]; 5% aqueous solution, after preparing)?
A: 7.7

Q: What about the “pH in carbon dioxide atmosphere after 12 minutes” value ([2]; carbon dioxide atmosphere, 12 minutes) of the same compound?
A: 6.6

Q: What about the “pH in carbon dioxide atmosphere after 1 hour” value ([2]; carbon dioxide atmosphere, 1 hour, constant afterwards) of the same compound?
A: 6.5

Q: What about the “pH in carbon dioxide atmosphere after two minutes” value ([2]; carbon dioxide atmosphere, first two minutes) of the same compound?
A: 6.9

Q: And the “pH at start in carbon dioxide atmosphere” value ([2]; carbon dioxide atmosphere, starting value)?
A: 9.2

Q: What about the “pH in normal air” value ([2]; crystals from solution adjusted to pH 10 with NaOH, normal air, remained the same during 24 hours) of the same compound?
A: 9.2

Q: What about the “pH in nitrogen atmosphere” value ([2]; nitrogen atmosphere, remained the same during 24 hours) of the same compound?
A: 9.5

Q: And the “pH at which formation of lactone occurred and other impurities increased” value [3]?
A: below 8
